Assay results reported in US9469650B2, “Melampomagnolide B derivatives” (BOARD OF TRUSTEES OF THE UNIVERSITY OF ARKANSAS, priority 2013, dated 2016).

Columns and labels:
SN12C = assay: panel of 60 human tumor cell lines, growth inhibition (Renal Cancer)
SK-MEL-5 = assay: panel of 60 human tumor cell lines, growth inhibition (Melanoma); settings: 8K-MEL-5
NCI-H460 = assay: panel of 60 human tumor cell lines, growth inhibition (Non-Small Cell Lung Cancer); settings: NCI-H460
MDA-MB-435 = assay: panel of 60 human tumor cell lines, growth inhibition (Melanoma); settings: MDA-MB-435
MDA-MB-231/ATCC = assay: panel of 60 human tumor cell lines, growth inhibition (Breast Cancer); settings: MDA-MB-231/ATCC
M14 = assay: panel of 60 human tumor cell lines, growth inhibition (Melanoma); settings: M14
HOP-62 = assay: panel of 60 human tumor cell lines, growth inhibition (Non-Small Cell Lung Cancer); settings: HOP-62
SR = assay: panel of 60 human tumor cell lines, growth inhibition (Leukemia)
HCC-2998 = assay: panel of 60 human tumor cell lines, growth inhibition (Colon Cancer); settings: HCC-2998
LOX IMVI = assay: panel of 60 human tumor cell lines, growth inhibition (Melanoma)
UO-31 = assay: panel of 60 human tumor cell lines, growth inhibition (Renal Cancer); settings: UO-31
CCRF-CEM = assay: panel of 60 human tumor cell lines, growth inhibition (Leukemia)
NCI-H226 = assay: panel of 60 human tumor cell lines, growth inhibition (Non-Small Cell Lung Cancer); settings: NCI-H226
786-0 = assay: panel of 60 human tumor cell lines, growth inhibition (Renal Cancer); settings: 786-0
U251 = assay: panel of 60 human tumor cell lines, growth inhibition (CNS Cancer); settings: U251
ACHN = assay: panel of 60 human tumor cell lines, growth inhibition (Renal Cancer)
SK-OV-3 = assay: panel of 60 human tumor cell lines, growth inhibition (Ovarian Cancer); settings: SK-OV-3
MCF7 = assay: panel of 60 human tumor cell lines, growth inhibition (Breast Cancer); settings: MCF7
OVCAR-8 = assay: panel of 60 human tumor cell lines, growth inhibition (Ovarian Cancer); settings: OVCAR-8

In the case of `C=C1C(=O)O[C@H]2[C@H]1CC/C(COC(=O)NC)=C\CC[C@@]1(C)O[C@@H]21` [JVM 2-57], the “Percent Growth” value (SN12C; Log10 Concentration −4.0) is reported as −59%, the “Percent Growth” value (SN12C; Log10 Concentration −5.0) is reported as 28% and the “Percent Growth” value (SN12C; Log10 Concentration −6.0) is reported as 93%. The “Percent Growth” value (SN12C; Log10 Concentration −7.0) was 97%, the “Percent Growth” value (SN12C; Log10 Concentration −8.0) was 96% and the GI50 (SN12C; NCI five dose) was 4.57 µM. The TGI (SN12C; NCI five dose) was 2.09E−5, the “Percent Growth” value (SK-MEL-5; Log10 Concentration −4.0) was −73% and the “Percent Growth” value (SK-MEL-5; Log10 Concentration −5.0) was 56%. For the same compound, the “Percent Growth” value (SK-MEL-5; Log10 Concentration −6.0) was 97%, the “Percent Growth” value (SK-MEL-5; Log10 Concentration −7.0) was 98% and the “Percent Growth” value (SK-MEL-5; Log10 Concentration −8.0) was 100%. The GI50 (SK-MEL-5; NCI five dose) was 11.1 µM, the TGI (SK-MEL-5; NCI five dose) was 2.70E−5 and the “Percent Growth” value (NCI-H460; Log10 Concentration −4.0) was −65%. The “Percent Growth” value (NCI-H460; Log10 Concentration −5.0) was 78%, the “Percent Growth” value (NCI-H460; Log10 Concentration −6.0) was 101% and the “Percent Growth” value (NCI-H460; Log10 Concentration −7.0) was 103%. The “Percent Growth” value (NCI-H460; Log10 Concentration −8.0) was 103%, the GI50 (NCI-H460; NCI five dose) was 15.6 µM and the TGI (NCI-H460; NCI five dose) was 3.49E−5. For the same compound, the “Percent Growth” value (MDA-MB-435; Log10 Concentration −4.0) was −81%, the “Percent Growth” value (MDA-MB-435; Log10 Concentration −5.0) was 32% and the “Percent Growth” value (MDA-MB-435; Log10 Concentration −6.0) was 91%. For the same compound, the “Percent Growth” value (MDA-MB-435; Log10 Concentration −7.0) was 93%, the “Percent Growth” value (MDA-MB-435; Log10 Concentration −8.0) was 99% and the GI50 (MDA-MB-435; NCI five dose) was 5.01 µM. For the same compound, the TGI (MDA-MB-435; NCI five dose) was 1.92E−5, the “Percent Growth” value (MDA-MB-231/ATCC; Log10 Concentration −4.0) was −77% and the “Percent Growth” value (MDA-MB-231/ATCC; Log10 Concentration −5.0) was 31%. For the same compound, the “Percent Growth” value (MDA-MB-231/ATCC; Log10 Concentration −6.0) was 86%, the “Percent Growth” value (MDA-MB-231/ATCC; Log10 Concentration −7.0) was 89% and the “Percent Growth” value (MDA-MB-231/ATCC; Log10 Concentration −8.0) was 106%. The GI50 (MDA-MB-231/ATCC; NCI five dose) was 4.48 µM, the TGI (MDA-MB-231/ATCC; NCI five dose) was 1.93E−5 and the “Percent Growth” value (M14; Log10 Concentration −4.0) was −66%. For the same compound, the “Percent Growth” value (M14; Log10 Concentration −5.0) was 27%, the “Percent Growth” value (M14; Log10 Concentration −6.0) was 87% and the “Percent Growth” value (M14; Log10 Concentration −7.0) was 89%. The “Percent Growth” value (M14; Log10 Concentration −8.0) was 99%, the GI50 (M14; NCI five dose) was 4.1 µM and the TGI (M14; NCI five dose) was 1.93E−5. For the same compound, the “Percent Growth” value (HOP-62; Log10 Concentration −4.0) was −86%, the “Percent Growth” value (HOP-62; Log10 Concentration −5.0) was 72% and the “Percent Growth” value (HOP-62; Log10 Concentration −6.0) was 92%. The “Percent Growth” value (HOP-62; Log10 Concentration −7.0) was 86%, the “Percent Growth” value (HOP-62; Log10 Concentration −8.0) was 95% and the GI50 (HOP-62; NCI five dose) was 13.9 µM. For the same compound, the TGI (HOP-62; NCI five dose) was 2.87E−5, the “Percent Growth” value (SR; Log10 Concentration −4.0) was −45% and the “Percent Growth” value (SR; Log10 Concentration −5.0) was 4%. The “Percent Growth” value (SR; Log10 Concentration −6.0) was 77%, the “Percent Growth” value (SR; Log10 Concentration −7.0) was 96% and the “Percent Growth” value (SR; Log10 Concentration −8.0) was 101%. The GI50 (SR; NCI five dose) was 2.33 µM, the TGI (SR; NCI five dose) was 1.21E−5 and the “Percent Growth” value (HCC-2998; Log10 Concentration −4.0) was −81%. The “Percent Growth” value (HCC-2998; Log10 Concentration −5.0) was 65%, the “Percent Growth” value (HCC-2998; Log10 Concentration −6.0) was 107% and the “Percent Growth” value (HCC-2998; Log10 Concentration −7.0) was 91%. The “Percent Growth” value (HCC-2998; Log10 Concentration −8.0) was 94%, the GI50 (HCC-2998; NCI five dose) was 12.7 µM and the TGI (HCC-2998; NCI five dose) was 2.80E−5. The “Percent Growth” value (LOX IMVI; Log10 Concentration −4.0) was −91%, the “Percent Growth” value (LOX IMVI; Log10 Concentration −5.0) was 21% and the “Percent Growth” value (LOX IMVI; Log10 Concentration −6.0) was 92%. The “Percent Growth” value (LOX IMVI; Log10 Concentration −7.0) was 95%, the “Percent Growth” value (LOX IMVI; Log10 Concentration −8.0) was 96% and the GI50 (LOX IMVI; NCI five dose) was 3.92 µM. For the same compound, the TGI (LOX IMVI; NCI five dose) was 1.55E−5, the “Percent Growth” value (UO-31; Log10 Concentration −4.0) was −93% and the “Percent Growth” value (UO-31; Log10 Concentration −5.0) was 7%. For the same compound, the “Percent Growth” value (UO-31; Log10 Concentration −6.0) was 82%, the “Percent Growth” value (UO-31; Log10 Concentration −7.0) was 88% and the “Percent Growth” value (UO-31; Log10 Concentration −8.0) was 84%. For the same compound, the GI50 (UO-31; NCI five dose) was 2.63 µM, the TGI (UO-31; NCI five dose) was 1.16E−5 and the “Percent Growth” value (CCRF-CEM; Log10 Concentration −4.0) was −53%. For the same compound, the “Percent Growth” value (CCRF-CEM; Log10 Concentration −5.0) was −29%, the “Percent Growth” value (CCRF-CEM; Log10 Concentration −6.0) was 59% and the “Percent Growth” value (CCRF-CEM; Log10 Concentration −7.0) was 93%. For the same compound, the “Percent Growth” value (CCRF-CEM; Log10 Concentration −8.0) was 97%, the GI50 (CCRF-CEM; NCI five dose) was 1.25 µM and the TGI (CCRF-CEM; NCI five dose) was 4.69E−6. For the same compound, the “Percent Growth” value (NCI-H226; Log10 Concentration −4.0) was −52%, the “Percent Growth” value (NCI-H226; Log10 Concentration −5.0) was 49% and the “Percent Growth” value (NCI-H226; Log10 Concentration −6.0) was 86%. The “Percent Growth” value (NCI-H226; Log10 Concentration −7.0) was 101%, the “Percent Growth” value (NCI-H226; Log10 Concentration −8.0) was 92% and the GI50 (NCI-H226; NCI five dose) was 9.29 µM. For the same compound, the TGI (NCI-H226; NCI five dose) was 3.06E−5, the “Percent Growth” value (786-0; Log10 Concentration −4.0) was −88% and the “Percent Growth” value (786-0; Log10 Concentration −5.0) was 38%. For the same compound, the “Percent Growth” value (786-0; Log10 Concentration −6.0) was 93%, the “Percent Growth” value (786-0; Log10 Concentration −7.0) was 90% and the “Percent Growth” value (786-0; Log10 Concentration −8.0) was 96%. The GI50 (786-0; NCI five dose) was 5.94 µM, the TGI (786-0; NCI five dose) was 1.99E−5 and the “Percent Growth” value (U251; Log10 Concentration −4.0) was −100%. The “Percent Growth” value (U251; Log10 Concentration −5.0) was 81%, the “Percent Growth” value (U251; Log10 Concentration −6.0) was 92% and the “Percent Growth” value (U251; Log10 Concentration −7.0) was 97%. For the same compound, the “Percent Growth” value (U251; Log10 Concentration −8.0) was 99%, the GI50 (U251; NCI five dose) was 14.9 µM and the TGI (U251; NCI five dose) was 2.81E−5. The CC50 (CAKI-1) was 36.6 µM, the CC50 (T-47D) was 40.2 µM and the “Percent Growth” value (ACHN; Log10 Concentration −4.0) was −83%. For the same compound, the “Percent Growth” value (ACHN; Log10 Concentration −5.0) was 7%, the “Percent Growth” value (ACHN; Log10 Concentration −6.0) was 84% and the “Percent Growth” value (ACHN; Log10 Concentration −7.0) was 93%. The “Percent Growth” value (ACHN; Log10 Concentration −8.0) was 98%, the GI50 (ACHN; NCI five dose) was 2.78 µM and the TGI (ACHN; NCI five dose) was 1.19E−5. The “Percent Growth” value (SK-OV-3; Log10 Concentration −4.0) was −26%, the “Percent Growth” value (SK-OV-3; Log10 Concentration −5.0) was 91% and the “Percent Growth” value (SK-OV-3; Log10 Concentration −6.0) was 105%. The “Percent Growth” value (SK-OV-3; Log10 Concentration −7.0) was 90%, the “Percent Growth” value (SK-OV-3; Log10 Concentration −8.0) was 101% and the GI50 (SK-OV-3; NCI five dose) was 22.4 µM. For the same compound, the TGI (SK-OV-3; NCI five dose) was 5.96E−5, the “Percent Growth” value (MCF7; Log10 Concentration −4.0) was −75% and the “Percent Growth” value (MCF7; Log10 Concentration −5.0) was 4%. The “Percent Growth” value (MCF7; Log10 Concentration −6.0) was 83%, the “Percent Growth” value (MCF7; Log10 Concentration −7.0) was 88% and the “Percent Growth” value (MCF7; Log10 Concentration −8.0) was 94%. For the same compound, the GI50 (MCF7; NCI five dose) was 2.61 µM, the TGI (MCF7; NCI five dose) was 1.11E−5 and the “Percent Growth” value (OVCAR-8; Log10 Concentration −4.0) was −76%. The “Percent Growth” value (OVCAR-8; Log10 Concentration −5.0) was 30%, the “Percent Growth” value (OVCAR-8; Log10 Concentration −6.0) was 92% and the “Percent Growth” value (OVCAR-8; Log10 Concentration −7.0) was 160%. The “Percent Growth” value (OVCAR-8; Log10 Concentration −8.0) was 100%, the GI50 (OVCAR-8; NCI five dose) was 4.82 µM and the TGI (OVCAR-8; NCI five dose) was 1.93E−5.
